Results: patent publication US20220160706A1, “PHARMACEUTICAL COMBINATION COMPRISING TNO155 AND A PD-1 INHIBITOR” (NOVARTIS AG, priority 2019, published 2022)
Where “and” joins values, the source holds several entries; their conditions need not be identical. Equal values may be shown once.

Key:
MC38 cell line = MC38 cell line in vitro proliferation/viability; format: cell-based, mouse; details: MC38 (PTPN11 G503V) in vitro, absence of immune cells
[1] = tested on: EGFR-dependent DETROIT-562 cancer cell line; assay: in vivo SHP2 inhibition and efficacy, DETROIT-562 xenograft; details: oral 20 mg/kg
Description: (§1) SHP2 inhibition can be measured by assessing biomarkers within the MAPK signaling pathway, such as decreased levels of phosphorylated ERK1/2 (pERK) and downregulation of dual specificity phosphatase 6 (DUSP6) mRNA transcript.

MC38 xenografts = MC38 xenografts in immunocompromised NSG mice; format: in vivo, mouse
in vivo = details: mouse
[2] = tested on: DETROIT-562 (pharyngeal squamous cell carcinoma) cancer cell line; assay: antiproliferation in DETROIT-562; format: cell-based; details: Homo sapiens; DETROIT-562 cells
[3] = tested on: phosphorylated ERK1/2 (pERK); assay: in vitro pERK inhibition in DETROIT-562; format: cell-based; details: Homo sapiens; DETROIT-562 cells
Description: as §1

[4] = tested on: KYSE-520 (esophageal squamous cell carcinoma) cancer cell line; assay: antiproliferation in KYSE-520; format: cell-based; details: Homo sapiens; KYSE-520 cells
Description: as §1

CD14+ monocytes = assay: M-CSF stimulated proliferation of CD14+ monocytes (CellTiter-Glo); format: cell-based, human; details: 50 ng/mL M-CSF, 6 days incubation
Method: Investigation of the effect of TNO155 on M-CSF stimualted proliferation of CD14+ monocytes. Peripheral blood mononuclear cells (PBMC) were isolated from the whole blood of two donors (donor 1670 and […]) by CPT tubes and spinning at 1800 rpm for 20 minutes. CD14 positive monocytes were then isolated from PBMC using human Pan Monocyte Isolation Kit (Miltenyi Biotec #130-096-537). 5000 monocytes suspended in 100 μL RPMI media were seeded in 96 well plates with 50 ng/mL recombinant M-CSF. 24 hours later, TNO155 was added at the indicated final concentrations. A CellTiter-Glo® (CTG) cell viability assay was performed according to manufacturer's instructions using a separate plate with identically seeded cells and also performed for all plates after 6 days of incubation with TNO155. The Day 6 measurements were normalized with DMSO treated groups as 100% to evaluate the TNO155 effects on the M-CSF stimulated proliferation of monocytes and the Day 0 cell seeding measurement was indicated by the light dotted line.

[5] = tested on: phosphorylated ERK1/2 (pERK); assay: in vitro pERK inhibition in KYSE-520; format: cell-based; details: Homo sapiens; KYSE-520 cells
Description: as §1

MC38 tumors = assay: MC38 syngeneic tumors in immune-competent C57BL/6 mice, anti-tumor activity; format: in vivo, mouse; details: day 14 post-first dose, TNO155 20 mg/kg BID, anti-PD1 10 mg/kg QW
HNSCC = HNSCC patients progressed on platinum-based chemotherapy; cited from earlier work
rodent PD-1 = assay: cross-reactivity with rodent PD-1; format: binding
human PD-1 = molecular target: T1, human PD-1 (human, UniProt Q15116 25-167, limits assumed); assay: Biacore (SPR); format not stated
T1 construct: also called human PD1 antigen; Programmed Death 1
T1 sequence (Q15116 25-167 limits assumed): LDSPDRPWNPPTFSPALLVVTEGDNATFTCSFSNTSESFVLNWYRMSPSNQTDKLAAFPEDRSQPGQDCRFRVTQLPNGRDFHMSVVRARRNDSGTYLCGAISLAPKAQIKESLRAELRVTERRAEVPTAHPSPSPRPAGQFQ

IL-2 production = format: cell-based; details: human blood ex vivo, super antigen stimulation with Staphylococcal enterotoxin B (SEB)

For `C[C@@H]1OCC2(CCN(c3cnc(Sc4ccnc(N)c4Cl)c(N)n3)CC2)[C@@H]1N` [TNO155, (3S,4S)-8-(6-amino-5-((2-amino-3-chloropyridin-4-yl)thio)pyrazin-2-yl)-3-methyl-2-oxa-8-azaspiro[4.5]decan-4-amine], the “effect on cell proliferation or viability” value (MC38 cell line) was “no effect on cell proliferation or viability”, the “decrease in DUSP6 mRNA transcript” value ([1]; DETROIT-562 in vivo) was “approximately 95%” and the tumor regression ([1]; twice-daily schedule, DETROIT-562) was 47%. For the same molecule, the anti-tumor activity (MC38 xenografts; 20 mg/kg BID, MC38 in NSG mice) was “lack of anti-tumor activity”, the “impact on downstream MAPK-signaling markers (phospho-ERK, phospho-RSK) in tumor cells” value (MC38 xenografts; MC38 with G503V mutation) was “no impact” and the MTD (in vivo) was 20 mg/kg. It also gave an IC50 [2] of 470 nM, an IC50 [3] of 35 nM and an IC50 [4] of 100 nM. The “M-CSF stimulated proliferation of CD14+ monocytes” value (CD14+ monocytes) was “blocked”, the IC50 [5] was 8 nM and 0.0034 µg/mL and the “treatment/control (T/C)” value (MC38 tumors) was 33.3%.

For “nivolumab: anti-programmed death-1 (PD-1) antibody”, the “survival rate at one year” value (HNSCC) is given as 36%.

B1: PDR001 (spartalizumab) (antibody, V domains shown)
VH: EVQLVQSGAEVKKPGESLRISCKGSGYTFTTYWMHWVRQATGQGLEWMGNIYPGTGGSNFDEKFKNRVTITADKSTSTAYMELSSLRSEDTAVYYCTRWTTGTGAYWGQGTTVTVSS
VL: EIVLTQSPATLSLSPGERATLSCKSSQSLLDSGNQKNFLTWYQQKPGQAPRLLIYWASTRESGVPSRFSGSGSGTDFTFTISSLEAEDAATYYCQNDYSYPYTFGQGTKVEIK
In the case of B1, the “cross-reactivity with rodent PD-1” value (rodent PD-1) is reported as “does not cross-react”, the Kd (human PD-1) is reported as 0.827 nM and the “enhancement of IL-2 production” value (IL-2 production) is reported as “approximately 2 fold”.
